Calls of active or inactive are those of the source. The calls are words filed in the database; no cut-off is given here.
Key:
A549 = assay: Cytotoxicity against human A549 cells after 72 hrs by sulforhodamine B assay; assay type: functional, cell-based; conditions: A549, 72 h
MDA-MB-231 [1] = assay: Cytotoxicity against human MDA-MB-231 cells after 72 hrs by sulforhodamine B assay; assay type: functional, cell-based; conditions: MDA-MB-231, 72 h
HeLa = assay: Cytotoxicity against human HeLa cells after 72 hrs by sulforhodamine B assay; assay type: functional, cell-based
MDA-MB-231 [2] = assay: Antitumor activity against human MDA-MB-231 cells xenografted in BALB/c-nu mouse assessed as reduction in tumor weight at 20 mg/kg, iv dosed every other day for 15 days; assay type: functional; conditions: MDA-MB-231, 360 h
MDA-MB-231 [3] = assay: Increase in histone H3 Ser10 phosphorylation in human MDA-MB-231 cells at 10 uM after 24 hrs by Western blot method; assay type: functional, cell-based
[4] = biological target: DNA topoisomerase 2-alpha (Homo sapiens) (UniProt P11388); conditions: 100 uM
Description: Inhibition of human recombinant topoisomerase 2alpha assessed as increase in linear DNA using circular supercoiled plasmid DNA substrate at 100 uM incubated for 30 mins by ethidium bromide staining based DNA gel electrophoresis

[5] = biological target: DNA topoisomerase 2-alpha (Homo sapiens) (UniProt P11388); assay: Inhibition of human recombinant topoisomerase 2alpha assessed as reduction in pBR322 DNA relaxation at 100 uM incubated for 30 mins by DNA gel electrophoresis
Mus musculus = assay: Toxicity in nude BALB/c mouse xenografted with human MDA-MB-231 cells assessed as reduction in body weight at 20 mg/kg, iv dosed every other day for 15 days (reference value: 24.2 g); assay type: organism-based; design: dose 20 mg/kg, route intravenous; conditions: in vivo, 360 h
MDA-MB-231 [6] = assay: Induction of DNA damage in human MDA-MB-231 cells assessed as increase in ATM S1981 phosphorylation at 10 uM after 24 hrs by Western blot method; assay type: functional, cell-based
[7] = biological target: DNA topoisomerase 2-alpha (Homo sapiens) (UniProt P11388); assay: Inhibition of human recombinant topoisomerase 2alpha assessed as reduction in kDNA decatenation at 100 uM incubated for 30 mins by DNA gel electrophoresis
[8] = biological target: T1, DNA topoisomerase (Bos taurus) (UniProt A0JN73); assay: Inhibition of calf thymus DNA topoisomerase 1 assessed as reduction in pBR322 DNA relaxation at 100 uM incubated for 30 mins by DNA gel electrophoresis
T1 sequence (whole entry): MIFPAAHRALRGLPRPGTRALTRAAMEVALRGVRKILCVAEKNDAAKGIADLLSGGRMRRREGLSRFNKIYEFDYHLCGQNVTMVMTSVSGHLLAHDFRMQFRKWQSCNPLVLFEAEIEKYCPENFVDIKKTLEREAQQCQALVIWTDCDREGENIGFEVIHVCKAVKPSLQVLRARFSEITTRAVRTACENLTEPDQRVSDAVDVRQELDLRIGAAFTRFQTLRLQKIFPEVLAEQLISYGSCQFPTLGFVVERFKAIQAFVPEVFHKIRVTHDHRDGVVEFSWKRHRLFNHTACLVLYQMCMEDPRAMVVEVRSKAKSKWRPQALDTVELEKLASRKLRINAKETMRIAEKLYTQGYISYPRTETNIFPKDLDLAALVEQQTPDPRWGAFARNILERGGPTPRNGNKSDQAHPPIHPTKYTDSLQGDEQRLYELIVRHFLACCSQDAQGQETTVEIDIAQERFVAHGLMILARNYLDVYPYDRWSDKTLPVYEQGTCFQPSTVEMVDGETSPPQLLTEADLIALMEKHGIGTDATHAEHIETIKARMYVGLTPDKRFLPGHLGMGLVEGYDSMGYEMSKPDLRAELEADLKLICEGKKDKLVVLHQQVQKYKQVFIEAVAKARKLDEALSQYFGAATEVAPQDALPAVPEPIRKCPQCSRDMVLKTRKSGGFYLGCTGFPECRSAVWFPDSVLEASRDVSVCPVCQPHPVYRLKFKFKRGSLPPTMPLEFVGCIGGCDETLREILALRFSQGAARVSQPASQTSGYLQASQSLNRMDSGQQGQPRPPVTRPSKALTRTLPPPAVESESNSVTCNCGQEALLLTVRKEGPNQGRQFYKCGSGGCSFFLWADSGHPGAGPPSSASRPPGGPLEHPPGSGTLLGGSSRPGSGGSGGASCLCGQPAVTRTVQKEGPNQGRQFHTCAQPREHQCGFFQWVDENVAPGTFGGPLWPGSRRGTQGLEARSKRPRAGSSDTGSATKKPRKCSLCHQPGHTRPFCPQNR

Chain of DNA topoisomerase 2-alpha (Homo sapiens) (P11388 whole entry): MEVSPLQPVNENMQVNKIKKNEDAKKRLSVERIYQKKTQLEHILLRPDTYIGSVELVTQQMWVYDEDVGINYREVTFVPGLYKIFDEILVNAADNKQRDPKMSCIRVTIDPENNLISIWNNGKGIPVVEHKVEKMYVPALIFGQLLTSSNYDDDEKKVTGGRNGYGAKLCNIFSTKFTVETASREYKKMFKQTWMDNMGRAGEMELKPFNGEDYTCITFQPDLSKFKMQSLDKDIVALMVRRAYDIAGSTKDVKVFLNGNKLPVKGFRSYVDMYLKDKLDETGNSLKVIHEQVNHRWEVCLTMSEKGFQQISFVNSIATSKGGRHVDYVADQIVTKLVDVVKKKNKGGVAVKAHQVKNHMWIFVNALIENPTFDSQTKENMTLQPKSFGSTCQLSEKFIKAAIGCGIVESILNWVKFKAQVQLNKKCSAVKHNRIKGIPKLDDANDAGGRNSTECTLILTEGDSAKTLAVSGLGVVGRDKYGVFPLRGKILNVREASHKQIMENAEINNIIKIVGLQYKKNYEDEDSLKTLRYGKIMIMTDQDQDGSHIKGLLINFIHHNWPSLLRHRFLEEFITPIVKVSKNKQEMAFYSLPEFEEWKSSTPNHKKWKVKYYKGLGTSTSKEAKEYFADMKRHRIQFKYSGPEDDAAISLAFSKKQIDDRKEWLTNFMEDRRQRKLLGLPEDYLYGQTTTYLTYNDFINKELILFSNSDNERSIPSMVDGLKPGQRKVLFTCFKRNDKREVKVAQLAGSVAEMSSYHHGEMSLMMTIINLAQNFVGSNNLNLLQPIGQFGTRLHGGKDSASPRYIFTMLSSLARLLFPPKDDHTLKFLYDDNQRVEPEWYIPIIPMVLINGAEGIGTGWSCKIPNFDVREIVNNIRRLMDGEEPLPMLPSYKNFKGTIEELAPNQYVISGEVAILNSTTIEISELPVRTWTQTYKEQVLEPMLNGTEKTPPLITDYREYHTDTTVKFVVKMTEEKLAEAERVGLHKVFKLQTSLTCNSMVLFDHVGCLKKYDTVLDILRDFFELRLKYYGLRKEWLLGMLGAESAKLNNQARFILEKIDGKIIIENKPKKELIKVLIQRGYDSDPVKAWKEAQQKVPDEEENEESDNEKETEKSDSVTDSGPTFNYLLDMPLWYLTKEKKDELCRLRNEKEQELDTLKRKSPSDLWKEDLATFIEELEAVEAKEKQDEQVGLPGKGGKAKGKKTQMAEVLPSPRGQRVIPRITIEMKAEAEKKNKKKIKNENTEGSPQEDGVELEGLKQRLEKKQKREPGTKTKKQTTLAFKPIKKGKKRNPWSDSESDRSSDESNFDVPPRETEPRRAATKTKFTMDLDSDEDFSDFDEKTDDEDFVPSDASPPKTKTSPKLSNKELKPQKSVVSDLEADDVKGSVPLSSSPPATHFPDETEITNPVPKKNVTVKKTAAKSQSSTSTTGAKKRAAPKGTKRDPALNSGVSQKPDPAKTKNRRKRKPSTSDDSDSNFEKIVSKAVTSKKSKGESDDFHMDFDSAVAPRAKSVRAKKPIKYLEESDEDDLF

| Compound | IC50 (A549) | IC50 (MDA-MB-231 [1]) | IC50 (HeLa) | further results |
| --- | --- | --- | --- | --- |
| COc1ccc2cc(-c3ccc(C(F)(F)F)cc3)ccc2c1 | > 20 µM | 54.9 µM | > 20 µM | – |
| COc1ccc2cc(-c3ccc([N+](=O)[O-])c(C(F)(F)F)c3)ccc2c1 | > 20 µM | 165 µM | > 20 µM | – |
| COC(=O)c1ccc(-c2ccc3cc(OC)ccc3c2)cc1O | > 20 µM | 77.3 µM | > 20 µM | – |
| COc1cc([C@@H]2c3cc4c(cc3[C@@H](O[C@@H]3O[C@@H]5CO[C@@H](C)O[C@H]5[C@H](O)[C@H]3O)[C@H]3COC(=O)[C@H]23)OCO4)cc(OC)c1O [ETOPOSIDE] | 13.8 µM | 3.67 µM | 4.36 µM | inhibition in vivo at 20 mg/kg (MDA-MB-231 [2]): 69%; Activity (MDA-MB-231 [3]): inactive; inhibition [4]: Active; inhibition [5]: Active; Activity (Mus musculus): 20.1 g; Activity (MDA-MB-231 [6]): Active |
| COc1ccc2cc(-c3ccc(O)cc3)ccc2c1 | > 20 µM | > 800 µM | > 20 µM | – |
| O=C(O)c1ccc(-c2ccc3cc(O)ccc3c2)cc1O | 15.3 µM | 8.1 µM | 5.5 µM | – |
| COc1ccc2cc(-c3ccc(N)cc3)ccc2c1 | > 20 µM | 168 µM | > 20 µM | – |
| O=[N+]([O-])c1ccc(-c2ccc3cc(O)ccc3c2)cc1C(F)(F)F | 3.5 µM | 4.5 µM | 1.9 µM | inhibition [5]: Active; inhibition [7]: Active |
| CC[C@@]1(O)C(=O)OCc2c1cc1n(c2=O)Cc2cc3ccccc3nc2-1 | – | – | – | inhibition [8]: Active |
| COc1ccc2cc(-c3ccc(OC)c(OC)c3)ccc2c1 | > 20 µM | 112 µM | > 20 µM | – |
| O=C(O)Cc1cc(-c2ccc3cc(O)ccc3c2)ccc1O | > 20 µM | > 800 µM | > 20 µM | – |
| Nc1ccc(-c2ccc3cc(O)ccc3c2)cc1 | 19.8 µM | 18.2 µM | 3.1 µM | – |
| COC(=O)c1cc(-c2ccc3cc(OC)ccc3c2)ccc1O | > 20 µM | 82.2 µM | > 20 µM | – |
| COc1ccc2cc(-c3ccc(OC(C)=O)c(COC(C)=O)c3)ccc2c1 | > 20 µM | 81.8 µM | > 20 µM | – |
| OCCc1cc(-c2ccc3cc(O)ccc3c2)ccc1O | 0.6 µM | 0.4 µM | 0.6 µM | inhibition [8]: inactive; inhibition [5]: inactive; inhibition [7]: Active |
| COC(=O)Cc1cc(-c2ccc3cc(O)ccc3c2)ccc1O | – | 98 µM | – | – |
| COc1ccc2cc(-c3ccc(CO)cc3)ccc2c1 | 7.9 µM | 152 µM | 9.1 µM | – |
| Oc1ccc2cc(-c3ccc(O)c(O)c3)ccc2c1 | 11.5 µM | 4.3 µM | 4.6 µM | inhibition [5]: Active; inhibition [7]: Active |
| COc1ccc2cc(-c3cc(C(C)=O)c(O)c([N+](=O)[O-])c3)ccc2c1 | > 20 µM | 19.8 µM | > 20 µM | inhibition [7]: Active |
| COc1ccc2cc(-c3cc(C=O)c(O)c(OC)c3)ccc2c1 | > 20 µM | 61.8 µM | > 20 µM | – |
| COc1ccc2cc(-c3ccc(O)c(C(=O)O)c3)ccc2c1 | > 20 µM | 93.3 µM | > 20 µM | – |
| Cc1ccc(C(=O)O)c(-c2ccc3cc(O)ccc3c2)c1 | > 20 µM | 94.3 µM | > 20 µM | inhibition [7]: Active |
| COC(=O)Cc1cc(-c2ccc3cc(OC)ccc3c2)ccc1O | > 20 µM | > 800 µM | > 20 µM | – |
| Cc1cc(-c2ccc3cc(O)ccc3c2)ccc1N | 3.5 µM | 2.1 µM | 2.9 µM | inhibition [5]: Active; inhibition [7]: Active |
| O=C(O)c1cc(-c2ccc3cc(O)ccc3c2)ccc1O | > 20 µM | 31.5 µM | > 20 µM | – |

Source: ChEMBL document CHEMBL3351570, “Design and synthesis of 2-phenylnaphthalenoids as inhibitors of DNA topoisomeraseIIα and antitumor agents” (Eur J Med Chem, 2014)
